# Molecular target: Human PDE9 (PDE9A2) (Homo sapiens (Human), UniProt O76083)
# Experiment: PDE9 IMAP fluorescence polarization (FP) inhibition assay
# Assay type: biochemical
# Conditions: apparent inhibition constant; human PDE9A2, FAM-cGMP substrate 50 nM, room temperature
# Protocol: The activity of the compounds in accordance with the present invention as PDE9 inhibitors may be readily determined without undue experimentation using a fluorescence polarization (FP) methodology that is well known in the art (Huang, W., et al., J. Biomol Screen, 2002, 7:215).
# In a typical experiment the PDE9 inhibitory activity of the compounds of the present invention was determined in accordance with the following experimental method.
# Human PDE9 (PDE9A2, GenBank Accession No. NM_001001567), full length with N-terminal GST tag, was purchased from BPS Bioscience. The fluorescence polarization assay for cyclic nucleotide phosphodiesterases was performed using an IMAP® FP kit supplied by Molecular Devices, Sunnyvale, CA (product #R8139). IMAP® technology has been applied previously to phosphodiesterase assays (Huang, W., et al., J. Biomol Screen, 2002, 7:215). Assays were performed at room temperature in 384-well microtiter plates with an incubation volume of 20.2 μL. Solutions of test compounds were prepared in DMSO and serially diluted with DMSO to yield 8 μL of each of 10 solutions differing by 3-fold in concentration, at 32 serial dilutions per plate. 100% inhibition is determined using a known PDE9 inhibitor, such as 1-(2-chlorophenyl)-6-[(2R)-3,3,3-trifluoro-2-methylpropyl]-1,5-dihydro-4H-pyrazolo[3,4-d]pyrimidine-4-one (BAY 73-6691) (Wunder et al, Mol. Pharmacol., 2005, 68 (6): 1775-81), (6-[(3S,4S)-4-methyl-1-(pyrimidin-2-ylmethyl) pyrrolidin-3-yl]-1-(tetrahydro-2H-pyran-4-yl)-1,5-dihydro-4H-pyrazolo[3,4-d]pyrimidin-4-one (PF-04447943) (Wager et al., ACS Chemical Neuroscience, 2010, 1:435-449). 0% of inhibition is determined by using DMSO (1% final concentrations). A Labcyte Echo 555 (Labcyte, Sunnyvale, CA) is used to dispense 200 nL from each well of the titration plate to the 384 well assay plate. Human PDE9A2 membrane preps were diluted to 1 ng/ml. […] PDE9 enzyme mix and compounds were mixed and incubated at room temperature for 30 min. Following which, FAMcGMP substrate was added, shaken and incubated for an additional 60 min at room temperature. The final concentration of human PDE9 membrane preparations were 0.5 ng/ml. The final concentration of FAM-cGMP was 50 nM. After the incubation period, the enzymatic reaction was stopped by addition of binding solution (IMAP-FP, Molecular Devices, comprised of 80% Solution A, 20% Solution B and a 1:600 dilution of binding reagent) to each well. The plates were shaken then incubated at room temperature for 1 h prior to determining the fluorescence polarization (mP) using a Perkin Elmer En Vision™ plate reader (Waltham, MA).
# Fluorescence polarization (mP) was calculated from the parallel(S) and perpendicular (P) fluorescence of each sample well and the analogous values for the median control well, containing only substrate (So and Po), using the following equation: […]
# Dose-inhibition profiles for each compound were characterized by fitting the mP data to a four-parameter equation given below. The apparent inhibition constant (KI), the maximum inhibition at the low plateau relative to “100% Inhibition Control” (Imax; e.g. 1=>same as this control), the minimum inhibition at the high plateau relative to the “0% Inhibition Control” (Imin, e.g. 0=>same as the no drug control) and the Hill slope (nH) are determined by a non-linear least squares fitting of the mP values as a function of dose of the compound using an in-house software based on the procedures described by Mosser et al., JALA, 2003, 8:54-63, using the following equation: […]
# An apparent (Km) for FAM-labeled […] of 150 nM was determined in separate experiments through simultaneous variation of substrate and selected drug concentrations.
# Sequence of Human PDE9 (PDE9A2) (O76083 other isoform, or with tags, fused parts or gaps): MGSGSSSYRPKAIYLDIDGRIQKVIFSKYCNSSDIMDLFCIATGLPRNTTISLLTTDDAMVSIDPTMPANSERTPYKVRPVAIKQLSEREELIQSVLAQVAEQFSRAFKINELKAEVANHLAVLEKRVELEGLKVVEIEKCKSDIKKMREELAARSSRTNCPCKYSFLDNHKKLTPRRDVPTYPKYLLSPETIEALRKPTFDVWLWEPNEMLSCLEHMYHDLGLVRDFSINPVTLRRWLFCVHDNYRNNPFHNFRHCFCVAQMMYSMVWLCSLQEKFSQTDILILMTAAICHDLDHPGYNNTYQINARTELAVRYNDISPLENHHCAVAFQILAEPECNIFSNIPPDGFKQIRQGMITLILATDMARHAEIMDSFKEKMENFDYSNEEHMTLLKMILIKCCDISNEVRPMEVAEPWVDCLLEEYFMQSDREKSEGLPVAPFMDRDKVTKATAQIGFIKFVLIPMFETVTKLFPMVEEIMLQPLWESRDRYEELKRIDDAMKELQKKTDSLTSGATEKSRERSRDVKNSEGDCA
row,SMILES,Ki
1,"CCC(c1ncccn1)N(C)c1nc2c(c(C#N)nn2C(C)c2ccc(C3CC3)nc2)c(=O)[nH]1 (single isomer, unassigned) [Example 2, 1-(1-(6-Cyclopropylpyridin-3-yl)ethyl)-6-(methyl(1-(pyrimidin-2-yl)propyl)amino)-4-oxo-4,5-dihydro-1H-pyrazolo[3,4-d]pyrimidine-3-carbonitrile]",5.24 nM
2,"CCC(c1ncccn1)N(C)c1nc2c(c(C#N)nn2C(C)c2ccc(C3CC3)nc2)c(=O)[nH]1 (single isomer, unassigned) [Example 3, 1-(1-(6-Cyclopropylpyridin-3-yl)ethyl)-6-(methyl(1-(pyrimidin-2-yl)propyl)amino)-4-oxo-4,5-dihydro-1H-pyrazolo[3,4-d]pyrimidine-3-carbonitrile]",1.82 nM
3,"CCC(c1ncccn1)N(C)c1nc2c(c(C#N)nn2C(C)c2ccc(C3CC3)nc2)c(=O)[nH]1 (single isomer, unassigned) [Example 4, 1-(1-(6-Cyclopropylpyridin-3-yl)ethyl)-6-(methyl(1-(pyrimidin-2-yl)propyl)amino)-4-oxo-4,5-dihydro-1H-pyrazolo[3,4-d]pyrimidine-3-carbonitrile]",0.03 nM
4,"CC(c1ncccn1)N(C)c1nc2c(c(C#N)nn2C(C)c2ccc(C(F)(F)F)nc2)c(=O)[nH]1 (single isomer, unassigned) [Example 5, 6-[methyl(1-pyrimidin-2-ylethyl)amino]-4-oxo-1-[1-[6-(trifluoromethyl)-3-pyridyl]ethyl]-5H-pyrazolo[3,4-d]pyrimidine-3-carbonitrile]",2.3 nM
5,"CCC(c1ncccn1)N(C)c1nc2c(c(C#N)nn2C(C)c2ccc(C(F)(F)F)nc2)c(=O)[nH]1 (single isomer, unassigned) [Example 9, 6-[methyl(1-pyrimidin-2-ylpropyl)amino]-4-oxo-1-[1-[6-(trifluoromethyl)-3-pyridyl]ethyl]-5H-pyrazolo[3,4-d]pyrimidine-3-carbonitrile]",0.14 nM

# Further lines, results first:
row,Ki,SMILES
1,3.2 nM,"CCC(c1ncccn1)N(C)c1nc2c(c(C#N)nn2C(C)c2ccc(C3CC3)nc2)c(=O)[nH]1 (single isomer, unassigned) [Example 1, 1-(1-(6-Cyclopropylpyridin-3-yl)ethyl)-6-(methyl(1-(pyrimidin-2-yl)propyl)amino)-4-oxo-4,5-dihydro-1H-pyrazolo[3,4-d]pyrimidine-3-carbonitrile]"
2,6.21 nM,"CC(c1ncccn1)N(C)c1nc2c(c(C#N)nn2C(C)c2ccc(C(F)(F)F)nc2)c(=O)[nH]1 (single isomer, unassigned) [Example 6, 6-[methyl(1-pyrimidin-2-ylethyl)amino]-4-oxo-1-[1-[6-(trifluoromethyl)-3-pyridyl]ethyl]-5H-pyrazolo[3,4-d]pyrimidine-3-carbonitrile]"
3,20.8 nM,"CC(c1ncccn1)N(C)c1nc2c(c(C#N)nn2C(C)c2ccc(C(F)(F)F)nc2)c(=O)[nH]1 (single isomer, unassigned) [Example 7, 6-[methyl(1-pyrimidin-2-ylethyl)amino]-4-oxo-1-[1-[6-(trifluoromethyl)-3-pyridyl]ethyl]-5H-pyrazolo[3,4-d]pyrimidine-3-carbonitrile]"
4,243 nM,"CC(c1ncccn1)N(C)c1nc2c(c(C#N)nn2C(C)c2ccc(C(F)(F)F)nc2)c(=O)[nH]1 (single isomer, unassigned) [Example 8, 6-[methyl(1-pyrimidin-2-ylethyl)amino]-4-oxo-1-[1-[6-(trifluoromethyl)-3-pyridyl]ethyl]-5H-pyrazolo[3,4-d]pyrimidine-3-carbonitrile]"
5,9.98 nM,"CCC(c1ncccn1)N(C)c1nc2c(c(C#N)nn2C(C)c2ccc(C(F)(F)F)nc2)c(=O)[nH]1 (single isomer, unassigned) [Example 10, 6-[methyl(1-pyrimidin-2-ylpropyl)amino]-4-oxo-1-[1-[6-(trifluoromethyl)-3-pyridyl]ethyl]-5H-pyrazolo[3,4-d]pyrimidine-3-carbonitrile]"

# Source: patent publication US20260001888A1, “PYRAZOLOPYRIMIDINE PDE9 INHIBITORS” (Merck Sharp & Dohme LLC, priority 2018, published 2026)
